# Literature values, collected in patent publication US9084838B2, “Feminine care absorbent article for use in warm climates” (Kimberly-Clark Worldwide, Inc., priority 2011, dated 2015).
# Settings: at 25° C.
structure (smiles),measurement,value
O=C(O)CC(O)(CC(=O)O)C(=O)O [citric acid],pKa2,4.76
same,pKa3,6.40
